Assay: Cocaine- and methamphetamine-induced hyperlocomotion, open field
Assay type: in vivo, mice (C57BL/6J background)
Settings: 12 mg/kg i.p., WT mice
Description: Once stable performance was achieved, self-administration was assessed once daily in 60 min sessions. Animals received vehicle (saline, i.p.) or SBI-553 (2, 6, or 12 mg/kg, i.p.) immediately prior to placement into self-administration chambers with access to cocaine at doses of 0.1, 0.3, 0.5, or 1 mg/kg/infusion. FIG. 7B-FIG. 7C show cocaine-induced and methamphetamine-induced hyperlocomotion.
Open-field testing is used to analyze animal movement. The Accuscan open field (Omnitech Electronics, Inc.) was used to assess locomotor activity as previously described (Toth et al., 2018: Slosky L M, et al. (2020)). Here, animal movement is determined by the breaking of gridded photocell beams.
The effect of SBI-553 on cocaine self-administration was both cocaine-dose dependent and SBI-553-dose dependent. […] In the presence of β-arrestin2, SBI-553 reduced activity in mice. A 12 mg/kg (i.p.) dose of SBI-553 decreased both cocaine-and methamphetamine-induced hyperlocomotion in wild-type (WT) mice on a C57BL/6J background (FIG. 7B-FIG. 7C). […] Conversely, a significant reduction in locomotion was absent in global β-arrestin2 KO mice (Slosky L M, et al. (2020) Cell. 181(6):1364-1379e14).

## COc1ccccc1C1CCN(c2nc(C3(F)CC3)nc3ccc(N(C)CCO)cc23)CC1 [SBI-553]
Cocaine 30 mg/kg i.p.
  Cocaine-induced hyperlocomotion: decreased
Methamphetamine 2 mg/kg i.p.
  Methamphetamine-induced hyperlocomotion: decreased

— patent publication US20240398806A1, “Compositions For and Methods of Treating and/or Preventing Pain” (Duke University, priority 2021, published 2024)
